Assays:
Type in all cases: cell-based
DMS53 (SCLC) cells = experiment: Inhibition of DMS53 cells by compounds; settings: PY-X (DXD) set to 1
Method: (§1) On the day of the experiment, the cells were digested with 0.25% trypsin (Gibco, 25200-072), filtered through a 40 μm sieve, diluted with the corresponding medium to a cell density of 1×10^4 cells/mL, and inoculated into a 96-well white cell culture plate (Beyotime, FCP968), with 100 μL of cells added per well. The culture plate was placed in a 37° C. incubator (Thermo 311) containing 5% C02 and incubated for 24 hours. On the second day, the samples to be tested were prepared as a stock solution at a final concentration of 1M in DMSO (Sigma, D1650), then diluted with the corresponding medium to a final concentration of 200 nM, and subjected to four-fold serial dilutions, resulting in a total of 9 concentrations. 100 μL of the diluted sample was added to each well of the 96-well plate. The plate was placed in a 37° C. incubator containing 5% CO2 and incubated for 144 hours. The cell culture plate was then removed, and 100 μL of the cell viability assay reagent (CellTiter-Glo® Luminescent Cell Viability Assay, Promega, G7571) was added to each well. The reaction was carried out in the dark at room temperature for 5 minutes. Luminescence values were read using a microplate reader (TECAN SPARK), and data were processed using Graphpad Prism 7 software.

H1437 (NSCLC) cells = experiment: Inhibition of H1437 cells by compounds; settings: PY-X (DXD) set to 1
Method: as §1

A549 (NSCLC) cells = experiment: Inhibition of A549 cells by compounds; settings: PY-X (DXD) set to 1
Method: as §1

H82 (SCLC) cells = experiment: Inhibition of H82 cells by compounds; settings: PY-X (DXD) set to 1
Method: as §1

SW1573 (NSCLC) cells = experiment: Inhibition of SW1573 cells by compounds; settings: PY-X (DXD) set to 1
Method: as §1

[1] = tested on: PANC-1 (Pancreatic) cells; experiment: Inhibition of PANC-1 cells by compounds; settings: PY-X (DXD) set to 1
Method: as §1

[2] = tested on: SW1990 (Pancreatic) cells; experiment: Inhibition of SW1990 cells by compounds; settings: PY-X (DXD) set to 1
Method: as §1

H1650 (NSCLC) cells = experiment: Inhibition of H1650 cells by compounds; settings: PY-X (DXD) set to 1
Method: as §1

Colo-205 (Colon) cells = experiment: Inhibition of Colo-205 cells by compounds; settings: PY-X (DXD) set to 1
Method: as §1

HT-29 (Colon) cells = experiment: Inhibition of HT-29 cells by compounds; settings: PY-X (DXD) set to 1
Method: as §1

FADU (HNSCC) cells = experiment: Inhibition of FADU cells by compounds; settings: PY-X (DXD) set to 1
Method: as §1

PA-1 (Ovarian) cells = experiment: Inhibition of PA-1 cells by compounds; settings: PY-X (DXD) set to 1
Method: as §1

H1975 (NSCLC) cells = experiment: Inhibition of H1975 cells by compounds; settings: PY-X (DXD) set to 1
Method: as §1

[3] = tested on: MDA-MB-468 breast cancer cells; experiment: Inhibitory activity of compounds on MDA-MB-468 breast cancer cells (CellTiter-Glo); settings: IC50 of PY-X (DXD) set to 1; values are ratios of measured IC50 to DXD
Method: as §1
(§2) PY—Y is referenced in the document (WO2022170971A1); and PY-A is referenced in the document (WO2021148501A1).

H358 (NSCLC) cells = experiment: Inhibition of H358 cells by compounds; settings: PY-X (DXD) set to 1
Method: as §1

OVCAR3 (Ovarian) cells = experiment: Inhibition of OVCAR3 cells by compounds; settings: PY-X (DXD) set to 1
Method: as §1

H23 (NSCLC) cells = experiment: Inhibition of H23 cells by compounds; settings: PY-X (DXD) set to 1
Method: as §1

N87 gastric cancer cells = experiment: Inhibitory activity of compounds on N87 gastric cancer cells (CellTiter-Glo, 144 h); settings: IC50 of PY-X (DXD) set to 1; values are ratios of measured IC50 to DXD; 144 h
Method: as §1, §2

| Compound | IC50 in DMS53 cells, ratio to DXD (DMS53 (SCLC) cells) | IC50 in H1437 cells, ratio to DXD (H1437 (NSCLC) cells) | IC50 in A549 cells, ratio to DXD (A549 (NSCLC) cells) | IC50 in H82 cells, ratio to DXD (H82 (SCLC) cells) | IC50 in SW1573 cells, ratio to DXD (SW1573 (NSCLC) cells) | IC50 in PANC-1 cells, ratio to DXD [1] | IC50 in SW1990 cells, ratio to DXD [2] | IC50 in H1650 cells, ratio to DXD (H1650 (NSCLC) cells) | IC50 in Colo-205 cells, ratio to DXD (Colo-205 (Colon) cells) | IC50 in HT-29 cells, ratio to DXD (HT-29 (Colon) cells) | IC50 in FADU cells, ratio to DXD (FADU (HNSCC) cells) | IC50 in PA-1 cells, ratio to DXD (PA-1 (Ovarian) cells) | IC50 in H1975 cells, ratio to DXD (H1975 (NSCLC) cells) | IC50 on 468 cells, ratio to DXD [3] | IC50 in H358 cells, ratio to DXD (H358 (NSCLC) cells) | IC50 in OVCAR3 cells, ratio to DXD (OVCAR3 (Ovarian) cells) | IC50 in H23 cells, ratio to DXD (H23 (NSCLC) cells) | IC50 on N87 cells, ratio to DXD (N87 gastric cancer cells) |
| --- | --- | --- | --- | --- | --- | --- | --- | --- | --- | --- | --- | --- | --- | --- | --- | --- | --- | --- |
| CC[C@@]1(O)C(=O)OCc2c1cc1n(c2=O)Cc2c-1nc1cc(F)c(CO)c3c1c2CCC3 [PY-10, (S)-9-ethyl-5-fluoro-9-hydroxy-4-(hydroxymethyl)-1,2,3,9,12,15-hexahydro-10H,13H-benzo[de]pyrano[3′,4′:6,7]indolizino[1,2-b]quinolin-10,13-dione] | 0.1968 | 0.1209 | 0.0792 | 0.1525 | 0.1540 | 0.0915 | 0.2133 | 0.0456 | 0.1546 | 0.0874 |  |  |  |  |  |  |  |  |
| CC[C@@]1(O)C(=O)OCc2c1cc1n(c2=O)Cc2c-1nc1cc(F)c(O)c3c1c2CCC3 [PY-13, (S)-9-ethyl-5-fluoro-4,9-dihydroxy-1,2,3,9,12,15-hexahydro-10H,13H-benzo[de]pyrano[3′,4:6,7]indolizino[1,2-b]quinolin-10,13-dione] | 0.1624 | 0.0969 | 0.0899 | 0.1364 | 0.1570 | 0.0810 | 0.1255 | 0.0415 | 0.1643 | 0.1434 | 0.1648 | 0.1600 | 0.0426 | 0.0798 | 0.1062 | 0.0560 | 0.0819 | 0.0852 |
| CC[C@@]1(O)C(=O)OCc2c1cc1n(c2=O)Cc2c-1nc1cc(F)c(CN)c3c1c2CCC3 [PY-16, (S)-4-(aminomethyl)-9-ethyl-5-fluoro-9-hydroxy-1,2,3,9,12,15-hexahydro-10H,13H-benzo[de]pyrano[3′,4′:6,7]indolizino[1,2-b]quinolin-10,13-dione] | 0.5137 | 0.2768 | 0.2053 | 0.3391 | 0.2256 | 0.1325 | 0.4346 | 0.1421 | 0.3082 | 0.1933 |  |  |  |  |  |  |  |  |
| exatecan mesylate [PY-E, reference compound] |  | 0.2303 | 0.1645 | 0.5103 | 0.3310 | 0.1086 | 0.3581 | 0.1570 | 0.2938 | 0.1376 | 0.4464 | 0.3572 | 0.0963 | 0.3546 | 0.2694 | 0.2269 | 0.1245 | 0.4782 |
